Experimental data: patent US20230118795A1, “ARYL OR HETEROARYL PYRIDONE OR PYRIMIDINE DERIVATIVE, PREPARATION METHOD AND USE THEREOF” (SUZHOU ZELGEN BIOPHARMACEUTICALS CO., LTD., priority 2020, published 2023)
pIC50: −log10 of the molar value.

Tested on: NCI-H358 (KRAS^G12C mutation) cell
Test: Cell assay of antiproliferative activity against NCI-H358 cell (Celltiter-Glo, 5 days)
Type: cell-based
Settings: 5 days incubation
Experimental: Cell Assay of Antiproliferative Activity of Compounds Against NCI-H358 (KRAS^G12C Mutation) Cell.
40 μL phosphate buffer was added to the outer wells of the 384 microplate, and 40 μL cell suspension to be tested was added to the other wells. Then the microplate was incubated in a carbon dioxide incubator overnight.
The compounds to be tested were gradiently diluted, each compound was performed 10 concentration gradients (diluted from 50 μM to 0.003 μM) and added 100 nL to the corresponding wells in the microplate. After addition, 40 μl of phosphate buffer was added to each well in rows A and P and columns 1 and 24, and then the microplate was incubated in a carbon dioxide incubator for 5 days.
20 μL of Promega Celltiter-Glo reagent was added to each well of the microplate, and then the luminescence signal was stabilized by oscillating at room temperature for 10 min. Then PekinElmer Envision multi-label analyzer was used to read.
Finally, GraphPad Prism software was used to calculate the IC50 value of the compound and the fitting curve was drawn.
Anti-proliferative activity of the compounds of the present invention against NCI-H358 (KRAS^G12C mutation) cell was shown in Table 1.

| Structure (SMILES) | pIC50 (Homo sapiens, NCI-H358, 120 h) | pIC50 |
| --- | --- | --- |
| C=CC(=O)N1CCN(c2nc(=O)n(-c3c(C4CC4)cccc3S(C)(=O)=O)c3nc(-c4c(O)cccc4F)c(F)cc23)[C@@H](C)C1 [Example 6, 4-((S)-4-acryloyl-2-methylpiperazin-1-yl)-1-(2-cyclopropyl-6-(methylsulfonyl)phenyl)-6-fluoro-7-(2-fluoro-6-hydroxyphenyl) pyridino [2,3-d] pyrimidin-2(1H)-one] | 7.55 | – |
| C=CC(=O)N1CCN(c2nc(=O)n(-c3c(C)ccnc3S(C)(=O)=O)c3nc(-c4c(O)cccc4F)c(F)cc23)[C@@H](C)C1 [Example 1, 4-((S)-4-acryloyl-2-methylpiperazin-1-yl)-6-fluoro-7-(2-fluoro-6-hydroxyphenyl)-1-(4-methyl-2-(methylsulfonyl)pyridin-3-yl) pyridino [2,3-d] pyrimidin-2 (1H)-one] | 7.05 | – |
| C=CC(=O)N1CCN(c2nc(=O)n(-c3ccccc3S(C)(=O)=O)c3nc(-c4c(O)cccc4F)c(F)cc23)C(CC(N)=O)C1 (centres unmarked) [Example 61, 2-(4-acryloyl-1-(6-fluoro-7-(2-fluoro-6-hydroxyphenyl)-1-(2-(methylsulfonyl)phenyl)-2-oxo-1,2-dihydropyridino [2,3-d]pyrimidin-4-yl)piperazin-2-yl) acetamide] | < 5.00 | – |
| C=CC(=O)N1CCN(c2nc(=O)n(-c3c(C(C)C)cccc3S(C)(=O)=O)c3nc(-c4cccn(C)c4=O)c(F)cc23)[C@@H](C)C1 [Example 73, (S)-4-(4-acryloyl-2-methylpiperazin-1-yl)-6-fluoro-1-(2-isopropyl-6-(methylsulfonyl)phenyl)-7-(1-methyl-2-oxo-1,2-dihydropyridin-3-yl) pyridino[2,3-d] pyrimidin-2 (1H)-one] | < 5.00 | – |
| C=CC(=O)N1CCN(c2nc(=O)n(-c3c(C)cccc3S(C)(=O)=O)c3nc(-c4c(O)cccc4F)c(F)cc23)[C@@H](CC#N)C1 [Example 3, 2-((2S)-4-acryloyl-1-(6-fluoro-7-(2-fluoro-6-hydroxyphenyl)-1-(2-methyl-6-(methylsulfonyl)phenyl)-2-oxo-1,2-dihydropyridino[2,3-d]pyrimidin-4-yl)piperazin-2-yl) acetonitrile] | 6.06 | – |
| C=CC(=O)N1CCN(c2nc(=O)n(-c3c(C(C)C)ccnc3S(C)(=O)=O)c3nc(-c4ccccc4Cl)c(F)cc23)[C@@H](C)C1 [Example 20, (S)-4-(4-acryloyl-2-methylpiperazin-1-yl)-7-(2-chlorophenyl)-6-fluoro-1-(4-isopropyl-2-(methylsulfonyl)pyridin-3-yl) pyridino[2,3-d] pyrimidin-2(1H)-one] | 7.64 | – |
| C=CC(=O)N1CCN(c2nc(=O)n(-c3c(C(C)C)cccc3S(C)(=O)=O)c3nc(-c4ccc[nH]c4=O)c(F)cc23)[C@@H](C)C1 [Example 71, (S)-4-(4-acryloyl-2-methylpiperazin-1-yl)-6-fluoro-1-(2-isopropyl-6-(methylsulfonyl)phenyl)-7-(2-oxo-1,2-dihydropyridin-3-yl) pyridino[2,3-d] pyrimidin-2 (1H)-one] | < 5.00 | – |
| C=CC(=O)N1CCN(c2nc(=O)n(-c3ccccc3S(=O)(=O)C(C)C)c3nc(-c4c(O)cccc4F)c(F)cc23)[C@@H](C)C1 [Example 86, 4-((S)-4-acryloyl-2-methylpiperazin-1-yl)-6-fluoro-7-(2-fluoro-6-hydroxyphenyl)-1-(2-(isopropylsulfonyl)phenyl) pyridino[2,3-d] pyrimidin-2(1H)-one] | > 6.00 | – |
| C=CC(=O)N1CCN(c2nc(=O)n(-c3c(C(C)C)cccc3S(C)(=O)=O)c3nc(-c4cccc(=O)n4C)c(F)cc23)[C@@H](C)C1 [Example 74, (S)-4-(4-acryloyl-2-methylpiperazin-1-yl)-6-fluoro-1-(2-isopropyl-6-(methylsulfonyl)phenyl)-7-(1-methyl-6-oxo-1,6-dihydropyridin-2-yl) pyridino[2,3-d] pyrimidin-2 (1H)-one] | < 5.00 | – |
| C=CC(=O)N1CCN(c2nc(=O)n(-c3c(C(C)C)cccc3S(C)(=O)=O)c3nc(-c4c(F)cccc4OC(C)=O)c(F)cc23)[C@@H](C)C1 [Example 31, 2-(4-((S))-4-acryloyl-2-methylpiperazin-1-yl)-6-fluoro-1-(2-isopropyl-6-(methylsulfonyl)phenyl)-2-oxo-1,2-dihydropyridino[2,3-d]pyrimidin-7-yl)-3-fluorophenyl acetate] | – | 8.10 |
| C=CC(=O)N1CCN(c2nc(=O)n(-c3c(C(C)C)ccnc3S(C)(=O)=O)c3nc(-c4c(F)cccc4OC)c(F)cc23)[C@@H](C)C1 [Example 19, 4-((S)-4-acryloyl-2-methylpiperazin-1-yl)-6-fluoro-7-(2-fluoro-6-methoxyphenyl)-1-(4-isopropyl-2-(methylsulfonyl)pyridin-3-yl) pyridino[2,3-d]pyrimidin-2(1H)-one] | 7.32 | – |
| C=CC(=O)N1C[C@H](C)N(c2nc(=O)n(-c3c(CC)cccc3S(C)(=O)=O)c3nc(-c4c(O)cccc4F)c(F)cc23)C[C@H]1C [Example 12, 4-((2S,5R)-4-acryloyl-2,5-dimethylpiperazin-1-yl)-1-(2-ethyl-6-(methylsulfonyl)phenyl)-6-fluoro-7-(2-fluoro-6-hydroxyphenyl) pyridino [2,3-d] pyrimidin-2 (1H)-one] | 7.39 | – |
| C=CC(=O)N1CCN(c2nc(=O)n(-c3c(C4CC4)cccc3S(C)(=O)=O)c3nc(-c4c(F)cccc4F)c(F)cc23)[C@@H](C)C1 [Example 15, (S)-4-(4-acryloyl-2-methylpiperazin-1-yl)-1-(2-cyclopropyl-6-(methylsulfonyl)phenyl)-7-(2,6-difluorophenyl)-6-fluoropyridino [2,3-d] pyrimidin-2(1H)-one] | 7.24 | – |
| C=CC(=O)N1CCN(c2nc(=O)n(-c3c(S(C)(=O)=O)ccnc3C)c3nc(-c4c(O)cccc4F)c(F)cc23)[C@@H](C)C1 [Example 2, 4-((S)-4-acryloyl-2-methylpiperazin-1-yl)-6-fluoro-7-(2-fluoro-6-hydroxyphenyl)-1-(2-methyl-4-(methylsulfonyl)pyridin-3-yl) pyridino [2,3-d] pyrimidin-2 (1H)-one] | 6.27 | – |
| C=CC(=O)N1CCN(c2nc(=O)n(-c3c(C4CCC4)cccc3S(C)(=O)=O)c3nc(-c4c(O)cccc4F)c(F)cc23)[C@@H](C)C1 [Example 25, 4-((S)-4-acryloyl-2-methylpiperazin-1-yl)-1-(2-cyclobutyl-6-(methylsulfonyl)phenyl)-6-fluoro-7-(2-fluoro-6-hydroxyphenyl) pyridino[2,3-d]pyrimidin-2(1H)-one] | – | 8.05 |
| C=CC(=O)N1CCN(c2nc(=O)n(-c3c(C(C)C)ccnc3S(C)(=O)=O)c3nc(-c4c(O)cccc4Cl)c(F)cc23)[C@@H](C)C1 [Example 27, 4-((S)-4-acryloyl-2-methylpiperazin-1-yl)-7-(2-chloro-6-hydroxyphenyl)-6-fluoro-1-(4-isopropyl-2-(methylsulfonyl)pyridin-3-yl) pyridino[2,3-d] pyrimidin-2(1H)-one] | 7.52 | – |
| C=CC(=O)N1CCN(c2nc(=O)n(-c3c(C(C)C)cccc3S(C)(=O)=O)c3nc(-c4cccc(=O)[nH]4)c(F)cc23)[C@@H](C)C1 [Example 72, (S)-4-(4-acryloyl-2-methylpiperazin-1-yl)-6-fluoro-1-(2-isopropyl-6-(methylsulfonyl)phenyl)-7-(6-oxo-1,6-dihydropyridin-2-yl) pyridino[2,3-d] pyrimidin-2 (1H)-one] | < 5.00 | – |
| C=CC(=O)N1CCN(c2nc(=O)n(-c3c(C(C)C)cccc3S(C)(=O)=O)c3nc(-c4c(Cl)cccc4C#N)c(F)cc23)[C@@H](C)C1 [Example 67] | < 5.00 | – |

The next lines start with the values.

| pIC50 (Homo sapiens, NCI-H358, 120 h) | pIC50 | Structure (SMILES) |
| --- | --- | --- |
| – | 6.46 | C=CC(=O)N1CCN(c2nc(=O)n(-c3c(C4CCC4)cccc3S(C)(=O)=O)c3nc(-c4c(O)cccc4F)c(F)cc23)[C@@H](C)C1 (single isomer, unassigned) [Example 25A] |
| – | 7.82 | C=CC(=O)N1CCN(c2nc(=O)n(-c3c(C4CC4)cccc3S(C)(=O)=O)c3nc(-c4c(O)cccc4F)c(F)cc23)[C@@H](C)C1 (single isomer, unassigned) [Example 6B] |
| – | 7.89 | C=CC(=O)N1CCN(c2nc(=O)n(-c3c(C(C)C)ccnc3S(C)(=O)=O)c3nc(-c4ccccc4Cl)c(F)cc23)[C@@H](C)C1 (single isomer, unassigned) [Example 20B] |
| – | > 7.00 | C=CC(=O)N1CCN(c2nc(=O)n(-c3c(C)cccc3S(C)(=O)=O)c3nc(-c4c(O)cccc4F)c(F)cc23)[C@@H](C)C1 (single isomer, unassigned) [Example 87B] |
| – | 8.05 | C=CC(=O)N1C[C@H](C)N(c2nc(=O)n(-c3c(C4CC4)cccc3S(C)(=O)=O)c3nc(-c4c(O)cccc4F)c(F)cc23)C[C@H]1C (single isomer, unassigned) [Example 81B] |
| – | 6.14 | C=CC(=O)N1CCN(c2nc(=O)n(-c3c(C(C)C)ccnc3S(C)(=O)=O)c3nc(-c4c(O)cccc4F)c(F)cc23)[C@@H](C)C1 (single isomer, unassigned) [Example 16A] |
| – | 7.18 | C=CC(=O)N1CCN(c2nc(=O)n(-c3c(C)cccc3S(C)(=O)=O)c3nc(-c4c(O)cccc4F)c(F)cc23)[C@@H](C)C1 (single isomer, unassigned) [Example 53B] |
| 6.77 | – | C=CC(=O)N1C[C@H](C)N(c2nc(=O)n(-c3c(C(C)C)cccc3S(C)(=O)=O)c3nc(-c4c(O)cccc4F)c(F)cc23)C[C@H]1C [Example 78A] |
